As a reminder, the IC50 is the midpoint of a concentration-inhibition curve. High values mean weaker potency, low ones greater potency.

Here are results for 23 compounds from patent US20090062294A1, “HETEROARYL-SUBSTITUTED UREA MODULATORS OF FATTY ACID AMIDE HYDROLASE” (priority 2007, published 2009).

SMILES strings stand for the structures. Counter-ions that a name gives are not always drawn.

Test [1] has as its target T1, rat FAAH (Rattus norvegicus, UniProt P97612).
T1 sequence (P97612 1-579): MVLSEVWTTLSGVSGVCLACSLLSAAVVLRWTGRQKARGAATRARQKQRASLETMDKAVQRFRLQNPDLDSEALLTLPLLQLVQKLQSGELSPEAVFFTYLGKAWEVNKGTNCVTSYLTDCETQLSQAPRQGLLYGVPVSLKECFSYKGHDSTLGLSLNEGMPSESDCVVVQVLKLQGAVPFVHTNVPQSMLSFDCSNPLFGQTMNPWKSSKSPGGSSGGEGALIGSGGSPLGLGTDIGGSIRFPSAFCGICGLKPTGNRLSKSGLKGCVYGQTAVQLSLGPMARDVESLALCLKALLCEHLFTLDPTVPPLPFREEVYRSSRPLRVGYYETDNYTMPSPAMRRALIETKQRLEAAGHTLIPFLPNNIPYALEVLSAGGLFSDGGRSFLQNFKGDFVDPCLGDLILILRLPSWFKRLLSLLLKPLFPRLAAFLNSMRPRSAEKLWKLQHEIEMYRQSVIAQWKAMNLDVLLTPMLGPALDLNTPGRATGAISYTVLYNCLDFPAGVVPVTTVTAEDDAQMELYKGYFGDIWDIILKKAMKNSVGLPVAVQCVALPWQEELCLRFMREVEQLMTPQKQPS
Description: Assay Method 2: FAAH assay, 3H-anandamide hydrolysis in homogenate of SK-N-MC cells transfected with rat FAAH. It counts as biochemical. The conditions noted are these: average of results, > = solubility limit or highest concentration tested. In short, it runs like this:
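Homogenate of SK-N-MC cells stably transfected with rat FAAH cDNA (G418-selected clones) in pH 9 Tris/EDTA/glycerol/Triton buffer. Incubated with compound and 80 nM final [3H]-anandamide for 1 h at rt. Released [3H]-ethanolamine separated from substrate on activated charcoal filters and counted by scintillation.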

Test [2] concerns the target T2, FAAH (Homo sapiens, UniProt O00519).
T2 sequence (O00519 1-579): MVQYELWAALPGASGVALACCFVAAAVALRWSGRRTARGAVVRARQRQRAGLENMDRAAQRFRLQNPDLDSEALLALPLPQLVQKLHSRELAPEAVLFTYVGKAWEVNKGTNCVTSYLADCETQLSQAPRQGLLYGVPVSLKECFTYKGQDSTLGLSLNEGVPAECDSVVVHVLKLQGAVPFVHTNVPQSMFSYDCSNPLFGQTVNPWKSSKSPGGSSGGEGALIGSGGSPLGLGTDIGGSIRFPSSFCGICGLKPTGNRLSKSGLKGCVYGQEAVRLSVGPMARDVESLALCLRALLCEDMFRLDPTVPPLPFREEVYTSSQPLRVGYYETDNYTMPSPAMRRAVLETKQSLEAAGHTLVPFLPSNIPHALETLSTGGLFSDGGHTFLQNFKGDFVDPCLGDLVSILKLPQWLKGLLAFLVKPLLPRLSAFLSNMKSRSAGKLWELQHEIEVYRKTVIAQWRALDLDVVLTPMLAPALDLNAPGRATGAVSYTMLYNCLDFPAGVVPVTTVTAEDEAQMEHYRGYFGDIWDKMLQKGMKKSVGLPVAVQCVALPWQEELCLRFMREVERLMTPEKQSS
Put plainly: Assay Method 1: FAAH assay, 3H-anandamide hydrolysis in homogenate of T84 cells or SK-N-MC cells transfected with human FAAH. The settings on record: average of results, > = solubility limit or highest concentration tested. Type of test: biochemical. The procedure, abridged:
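Homogenates of T84 cells or of SK-N-MC cells stably transfected with human FAAH (G418-selected) were prepared in pH 9 Tris/EDTA/glycerol/Triton buffer. They were incubated with compound and 80 nM final ^3H-anandamide for 1 h at rt. Released ^3H-ethanolamine was separated on activated charcoal and counted by scintillation.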

Turning to `O=C(Nc1ccc(Cl)nn1)N1CCN(Cc2cccc(Oc3ccc(Cl)cc3)c2)CC1` [Example 42, 4-[3-(4-Chloro-phenoxy)-benzyl]-piperazine-1-carboxylic acid (6-chloro-pyridazin-3-yl)-amide trifluoroacetic acid salt], the half-maximal inhibitory concentration (IC50) was determined as 18 nM in test [1] and 311 nM in test [2].

Consider `O=C(Nc1ccc(Cl)nn1)N1CCN(Cc2cccc(Oc3ccc(Cl)c(Cl)c3)c2)CC1` [Example 43, 4-[3-(3,4-Dichloro-phenoxy)-benzyl]-piperazine-1-carboxylic acid (6-chloro-pyridazin-3-yl)-amide trifluoroacetic acid salt], for which the IC50 in test [1] worked out at 6 nM; in test [2] it was 983 nM.

For the compound `O=C(Nc1ccc(Cl)nn1)N1CCN(Cc2cccc(Oc3cccc(C(F)(F)F)c3)c2)CC1` [Example 44, 4-[3-(3-Trifluoromethyl-phenoxy)-benzyl]-piperazine-1-carboxylic acid (6-chloro-pyridazin-3-yl)-amide trifluoroacetic acid salt], the figures for the concentration for half-maximal inhibition (IC50) in test [1] and in test [2] were 46 nM and 643 nM, respectively.

For `O=C(Nc1ccc(Cl)nn1)N1CCN(Cc2ccc(F)c(Oc3ccccc3)c2)CC1` [Example 45, 4-(4-Fluoro-3-phenoxy-benzyl)-piperazine-1-carboxylic acid (6-chloro-pyridazin-3-yl)-amide trifluoroacetic acid salt], the figures for the IC50 in test [1] and in test [2] were 410 nM and 1500 nM, respectively.

As for `O=C(Nc1ccon1)N1CCN(Cc2cccc(Oc3ccc(Cl)c(Cl)c3)c2)CC1` [Example 47, 4-[3-(3,4-Dichloro-phenoxy)-benzyl]-piperazine-1-carboxylic acid isoxazol-3-ylamide trifluoroacetic acid salt], the IC50 in test [1] turned out to be 66 nM; in test [2], 1140 nM.

As to `O=C(Nc1ccon1)N1CCN(Cc2cccc(Oc3cccc(C(F)(F)F)c3)c2)CC1` [Example 48, 4-[3-(3-Trifluoromethyl-phenoxy)-benzyl]-piperazine-1-carboxylic acid isoxazol-3-ylamide trifluoroacetic acid salt], the concentration for half-maximal inhibition (IC50) in test [1] was determined as 49 nM; in test [2] it was 627 nM.

Take `O=C(Nc1ccon1)N1CCN(Cc2ccc(F)c(Oc3ccccc3)c2)CC1` [Example 49, 4-(4-Fluoro-3-phenoxy-benzyl)-piperazine-1-carboxylic acid isoxazol-3-ylamide trifluoroacetic acid salt]: the IC50 in test [1] turned out to be 360 nM; in test [2] it was 2000 nM.

As for `O=C(Nc1noc2ccccc12)N1CCN(Cc2cccc(Oc3ccc(Cl)c(Cl)c3)c2)CC1` [Example 50, 4-[3-(3,4-Dichloro-phenoxy)-benzyl]-piperazine-1-carboxylic acid benzo[d]isoxazol-3-ylamide trifluoroacetic acid salt], the IC50 is 18 nM in test [1] and 42 nM in test [2].

For `O=C(Nc1noc2ccccc12)N1CCN(Cc2cccc(Oc3cccc(C(F)(F)F)c3)c2)CC1` [Example 51, 4-[3-(3-Trifluoromethyl-phenoxy)-benzyl]-piperazine-1-carboxylic acid benzo[d]isoxazol-3-ylamide trifluoroacetic acid salt], the IC50 in test [1] stood at 29 nM; in test [2], 28 nM.

As for `O=C(Nc1noc2ccccc12)N1CCN(Cc2cccc(OC(F)(F)F)c2)CC1` [Example 52, 4-(3-Trifluoromethoxy-benzyl)-piperazine-1-carboxylic acid benzo[d]isoxazol-3-ylamide trifluoroacetic acid salt], the IC50 in test [1] amounted to 322 nM; in test [2], 74 nM.

As to `O=C(Nc1cc[nH]n1)N1CCN(Cc2cccc(Oc3ccc(Cl)c(Cl)c3)c2)CC1` [Example 54, 4-[3-(3,4-Dichloro-phenoxy)-benzyl]-piperazine-1-carboxylic acid (1H-pyrazol-3-yl)-amide trifluoroacetic acid salt], the IC50 in test [1] came out at 50 nM; in test [2], 370 nM.

For `O=C(Nc1cc[nH]n1)N1CCN(Cc2cccc(Oc3cccc(C(F)(F)F)c3)c2)CC1` [Example 55, 4-[3-(3-Trifluoromethyl-phenoxy)-benzyl]-piperazine-1-carboxylic acid (1H-pyrazol-3-yl)-amide trifluoroacetic acid salt], the IC50 in test [1] worked out at 764 nM; in test [2], 7750 nM.

Consider `O=C(Nc1cc[nH]n1)N1CCN(Cc2ccc(F)c(Oc3ccccc3)c2)CC1` [Example 56, 4-(4-Fluoro-3-phenoxy-benzyl)-piperazine-1-carboxylic acid (1H-pyrazol-3-yl)-amide trifluoroacetic acid salt], for which the IC50 in test [1] came out at 550 nM; in test [2] it was 1500 nM.

For the compound `O=C(Nc1cnccn1)N1CCN(Cc2cccc(Oc3ccc(Cl)c(Cl)c3)c2)CC1` [Example 59, 4-[3-(3,4-Dichloro-phenoxy)-benzyl]-piperazine-1-carboxylic acid pyrazin-2-ylamide trifluoroacetic acid salt], the IC50 came to 22 nM in test [1] and 270 nM in test [2].

Consider `O=C(Nc1cnccn1)N1CCN(Cc2cccc(Oc3cccc(C(F)(F)F)c3)c2)CC1` [Example 60, 4-[3-(3-Trifluoromethyl-phenoxy)-benzyl]-piperazine-1-carboxylic acid pyrazin-2-ylamide trifluoroacetic acid salt], for which the IC50 in test [1] is 16 nM; in test [2] it was 166 nM.

On to `O=C(Nc1cnccn1)N1CCN(Cc2cccc(OC(F)(F)F)c2)CC1` [Example 61, 4-(3-Trifluoromethoxy-benzyl)-piperazine-1-carboxylic acid pyrazin-2-ylamide trifluoroacetic acid salt], for which the IC50 was determined as 7000 nM in test [1] and 2300 nM in test [2].

Turning to `O=C(Nc1noc2ccccc12)N1CCC(Cc2ccc3c(c2)OC(F)(F)O3)CC1` [Example 62, N-1,2-Benzisoxazol-3-yl-4-[(2,2-difluoro-1,3-benzodioxol-5-yl)methyl]piperidine-1-carboxamide], the figures for the IC50 in test [1] and in test [2] were 35 nM and 41 nM, respectively.

As to `Cc1ccccc1C#Cc1cccc(CN2CCN(C(=O)Nc3noc4ccccc34)CC2)c1` [Example 63, 4-(3-o-Tolylethynyl-benzyl)-piperazine-1-carboxylic acid benzo[d]isoxazol-3-ylamide], the IC50 in test [1] was 77 nM; in test [2] it was 70 nM.

In the case of `O=C(Nc1noc2ccccc12)N1CCN(Cc2cccc(C#Cc3ccccc3C(F)(F)F)c2)CC1` [Example 64, N-1,2-Benzisoxazol-3-yl-4-(3-{[2-(trifluoromethyl)-phenyl]-ethynyl}benzyl)-piperazine-1-carboxamide], the figures for the IC50 in test [1] and in test [2] were 80 nM and 105 nM, respectively.

Consider `COc1ccccc1C#Cc1cccc(CN2CCN(C(=O)Nc3noc4ccccc34)CC2)c1` [Example 65, N-1,2-Benzisoxazol-3-yl-4-{3-[(2-methoxyphenyl)-ethynyl]-benzyl}-piperazine-1-carboxamide], for which the 50% inhibitory concentration (IC50) in test [1] worked out at 300 nM; in test [2], 395 nM.

`O=C(Nc1noc2ccccc12)N1CCN(Cc2cccc(C#Cc3ccccc3F)c2)CC1` [Example 66, N-1,2-Benzisoxazol-3-yl-4-{3-[(2-fluorophenyl)ethynyl]-benzyl}-piperazine-1-carboxamide]: the IC50 in test [1] amounted to 46 nM; in test [2] it was 24 nM.

`O=C(Nc1noc2ccccc12)N1CCN(Cc2cccc(C#Cc3ccccc3Br)c2)CC1` [Example 67, N-1,2-Benzisoxazol-3-yl-4-{3-[(2-bromophenyl)-ethynyl]benzyl}-piperazine-1-carboxamide]: the results for the IC50 in test [1] and in test [2] were 52 nM and 6 nM, respectively.

On to `C#Cc1cccc(CN2CCN(C(=O)Nc3noc4ccccc34)CC2)c1` [Example 68, 4-(3-Ethynyl-benzyl)-piperazine-1-carboxylic acid benzo[d]isoxazol-3-ylamide], for which the IC50 in test [1] was 315 nM; in test [2], 16 nM.
